# Laboratory results as given in US10869903B2, “Probiotic and prebiotic compositions, and methods of use thereof for treatment and prevention of graft versus host disease” (Evelo Biosciences, Inc., priority 2014, dated 2020).
# How the values were obtained:
# [1] = system: serum endotoxin
# [2] = system: Tregs in the large intestine; conditions: mouse, in vivo; cited from earlier work
# [3] = system: blautia; assay: Sugar fermentation in media lacking glucose (pH and optical density); type: cell-based
# [4] = system: Lactobacillus johnsonii; type: cell-based
# [5] = system: tumors; conditions: oral administration; anti-PD-1 and anti-CTLA-4 antibody therapies; cited from earlier work
# [6] = system: microbiome of the gut and the vagina; set-up: species or system C57Bl/6 female mice; conditions: mouse, in vivo
# Excerpt: The trillions of organisms forming the microbiome function as an organ system interconnected throughout the body. The possibility that modification of the microbiome in a given physical location may influence the microbiome at other sites in the body (distal augmentation) was investigated. Seven week old C57Bl/6 female mice were acclimatized for 7 days prior to the start of the study by daily handling and shuffling between cages. All mice were housed at three mice per cage in individually vented cages (Thoren, Hazleton, Pa.). At day 0, baseline fresh fecal pellets, and vaginal lavages with 100 μL of sterile double-distilled water were collected and immediately frozen at −80° C. for microbiome analysis. […] Water alone is not expected to influence the microbiome and acted as a negative control. […] The impact of oral vancomycin is therefore expected to be limited to the gastrointestinal tract such that microbiome changes elsewhere in the body (e.g. vagina) would be attributable to distal augmentation. […]
# Isolation and sequencing of microbial DNA from the stool and vaginal samples was performed by DNA Genotek (Ottawa, ON, Canada). The V3-V4 region of the 16S ribosomal subunit was amplified with custom PCR primers and sequenced on an Illumina MiSeq to a minimum acceptable read depth of 25,000 sequences per sample. […]
# [7] = system: human peripheral blood mononuclear cells (PBMCs); assay: Cytokine release by human PBMCs incubated with commensal bacteria, alone or combined with E. faecalis (Luminex); type: cell-based; conditions: for anti-inflammatory profile for a Th-1-driven condition such as GVHD: overall assessment
# Procedure: An in vitro system was developed to efficiently test the inflammatory and immunomodulatory properties of different human commensal bacteria on human peripheral blood mononuclear cells (PBMCs). Experiments were carried out with 21 bacterial candidates to profile their anti-inflammatory properties against human PBMCs. The innate properties of bacteria alone on human PBMCs were tested as well as their ability to counteract the pro-inflammatory activity of Enterococcus feacalis.
# Human PBMCs were isolated from fresh blood by density-gradient centrifugation using Ficoll (1-4). […] The results are presented in FIGS. 2-5 for all time points. […] The 24 h results are shown as a composite in FIG. 6 and with statistical analysis on individual cytokines in FIGS. 7-10. The results represent the properties of each bacterial species against human PBMCs and their ability to counteract inflammatory stimulation with E. faecalis in vitro.
# [8] = Normal human volunteer study of D-xylose: CRP, serum cytokines, T-cell markers; type: in vivo, healthy, adult volunteers
# Excerpt: Blood was collected at pre-specified pre- and post-ingestion time points to evaluate C-reactive protein (CRP), serum cytokines (tumor necrosis factor alpha [TNF-α], interleukin [IL]-2, IL-6, interferon gamma [IFN-γ], and IL-10), and T-cell markers CD3, CD4, CD8, CD25, and FOXP3. Plasma was also stored and may be tested for biomarkers and/or metabolic markers for up to 7 years.
# Summary statistics (n, mean, standard deviation, median, minimum, and maximum) were presented for serum concentrations of CRP, flow cytometry T-cell markers (CD3, CD4, CD8, CD25, and FOXP3), and cytokines (TNF-α, IL-2, IL-6, IFN-γ, and IL-10) as per their nominal time points.
# [9] = system: GVHD; set-up: species or system mice; conditions: mouse, in vivo
# [10] = Normal human volunteer study of D-xylose: serum and urine pharmacokinetics; type: in vivo, healthy, adult volunteers
# Excerpt: Blood and urine were collected at pre-specified pre- and post-ingestion time points to measure D-xylose levels and to characterize the systemic absorption profiles of D-xylose. Phoenix® WinNonLin®, Version 6.2.1, was used for PK analyses. Serum D-xylose concentrations were summarized by cohort using nominal sample times according to actual amount received using summary statistics (n, coefficient of variation [CV], mean, standard deviation [SD], median, minimum, and maximum). Evidence for the occurrence of steady-state was assessed graphically by comparing the time course of either trough or 2-hour post-ingestion serum concentrations of D-xylose as different levels of D-xylose. Accumulation was assessed by comparing the 2-hour post-first-ingestion serum levels with those observed at Week 2 (Day 15) and Week 4 (Day 28). […] Urine PK parameters for D-xylose levels included Ae(0-t) (cumulative amount of sweetener recovered in urine) and percent sweetener amount excreted over a 5-hour period.
# [11] = system: anaerobic commensal bacteria; assay: Carbon source usage profiling on Biolog PM01 and PM02A plates (OD 750 nm); type: cell-based
# [12] = human, in vivo
# Procedure: D-xylose is a carbon source generally preferred by anaerobic bacteria. […] A parallel, double-blind, 5 cohort escalation food safety study was conducted to examine D-xylose in normal human volunteers. The study was a double-blind, single-center, parallel group study designed to evaluate the tolerability and potential microbiome changes induced by ingestion of D-xylose at 5 different amounts in healthy, adult volunteers enrolled at 1 study center in the United States (US).
# Subjects were screened for eligibility within 21 days prior to the first planned ingestion of study sweetener on Day 1 (Baseline). […]
# Subjects returned to the study center weekly on Days 8, 15, 22, and 28 for ingestion, tolerability, and compliance evaluations. Safety was evaluated on a continual basis through adverse events (AE) monitoring, clinical laboratory measurements, vital sign monitoring, physical examinations, electrocardiograms (ECGs), telephone follow-up, and electronic subject ingestion diaries. Stool was collected pre-ingestion and at pre-specified time points, and post-ingestion samples were evaluated for changes in the gut microbiome compared with Baseline for all subjects. […]
# Safety was evaluated on a continual basis through AE monitoring, clinical laboratory measurements, vital sign monitoring, physical examinations, ECGs, telephone follow-up, and electronic subject ingestion diaries. […]
compound,measurement,setting,value
"CCN1CCN(c2cc3c(cc2F)c(=O)c(C(=O)O)cn3C2CC2)CC1 [enro, enrofloxacin, reference compound]",serum endotoxin levels after antibiotic,"[1]; 0.25 g/L in drinking water day −7 to day −2, measured 2 days after a 5 day course (day 0)",led to an increase in serum endotoxin levels
CCC(=O)O [propionate],numbers of Tregs in the large intestine,[2],restored normal numbers of Tregs
C[C@H](O)[C@H](O)[C@@H](O)[C@@H](O)C=O [rhamnose],augmentation (fermentation) of blautia,[3],specifically augments blautia
same,augmentation (fermentation) of lactobacillus,[4],not lactobacillus
Lactobacillus,responsiveness to checkpoint inhibitor therapy in cancer,[5],not
CC(=O)O [acetate],numbers of Tregs in the large intestine,[2],restored normal numbers of Tregs
Bifidobacterium,responsiveness to checkpoint inhibitor therapy in cancer,[5],increases the responsiveness
Bacteroides,responsiveness to checkpoint inhibitor therapy in cancer,[5],increases the responsiveness
CN[C@H](CC(C)C)C(=O)N[C@H]1C(=O)N[C@@H](CC(N)=O)C(=O)N[C@H]2C(=O)N[C@H]3C(=O)N[C@H](C(=O)N[C@H](C(=O)O)c4cc(O)cc(O)c4-c4cc3ccc4O)[C@H](O)c3ccc(c(Cl)c3)Oc3cc2cc(c3O[C@@H]2O[C@H](CO)[C@@H](O)[C@H](O)[C@H]2O[C@H]2C[C@](C)(N)[C@H](O)[C@H](C)O2)Oc2ccc(cc2Cl)[C@H]1O [vancomycin],"impact on the microbiome of the gut (PCA at family level, fecal samples)",[6],strong impact on the microbiome of the gut
same,day 0 to day 6 pattern in vaginal samples (PCA),[6]; po,showed an overall difference
B. wexlerae [EPV5],anti-inflammatory profile for a Th-1-driven condition such as GVHD,[7],suboptimal anti-inflammatory profile
B. luti [EPV3],intrinsic inflammatory activity (induction of pro-inflammatory cytokines) compared to EPV 8,"[7]; bacterium alone, 24 h",relatively low intrinsic inflammatory activity
same,"reduction of induction of pro-inflammatory cytokines by EPV 8, including IL-6, MCP-1, IL-12p70, IFNγ","[7]; combination with EPV 8, 24 h",able to reduce
same,anti-inflammatory profile for a Th-1-driven condition such as GVHD,[7],significantly desirable anti-inflammatory profile
O=C[C@H](O)[C@@H](O)[C@H](O)CO [D-xylose],basal levels of serum endotoxin,"[1]; mouse, in vivo",reduced these basal levels over time
same,effect on increase in serum endotoxin level caused by cipro,"[1]; mouse, in vivo",appeared to counteract the increase
same,effect on increase in serum endotoxin level caused by enro,"[1]; mouse, in vivo",but not enro
same,augmentation (fermentation) of blautia,[3],specifically augments blautia
same,levels of serum interferon gamma over time,[8]; 2 g and 15 g D-xylose cohorts,trend for reduced levels
same,subjects with normal serum CRP at Baseline and at least 1 post-ingestion CRP value >2.9 mg/L,[8]; all cohorts of the sweetener,8.3%
same,Blautia level in the intestinal flora,[9],expansion of Blautia in the intestinal flora
same,GVHD related survival,[9],improved survival
same,ingested amount recovered in urine within 5 hours post-ingestion,"[10]; 1 g TID cohort, Days 1, 15 and 28",approximately 40%
same,serum D-xylose concentrations versus ingestion amount,[10]; 1 to 15 g TID,increased linearly with increasing ingestion amounts
same,accumulation ratio of serum D-xylose,"[10]; Day 15, 15 mg TID cohort, variability high",approximately 1.9 fold
same,accumulation ratio of serum D-xylose,"[10]; Day 28, 15 g TID",1.68
same,augmentation (fermentation) of lactobacillus,[4],not lactobacillus
same,use as a carbon source by bacterial strains,[11],used as a carbon source by several bacterial strains
same,"SAEs, severe AEs, subject deaths",[12],"No SAEs, severe AEs, or subject deaths"
same,tolerability,[12],well tolerated
